Results: US20250066368A1, “DNA POLYMERASE THETA INHIBITOR AND USE THEREOF” (SHANGHAI APEIRON THERAPEUTICS COMPANY LIMITED, priority 2021, published 2025)

These compounds were tested against Polθ polymerase (Homo sapiens (Human), UniProt O75417) (assay: Polθ polymerase activity assay (PicoGreen method)). Settings: His-TEV-SUMO-tagged Polθ protein (amino acids 1792-2590), PicoGreen fluorescence, in vitro.
Type: biochemical
Experimental: The ability of compounds to inhibit Pol 0 polymerase activity was determined by the PicoGreen method in vitro. The His-TEV-SUMO-tagged Polθ protein (amino acids 1792-2590) expressed in E. coli was purified and stored in aliquots at -80° C. […] Test compounds were diluted in 100% DMSO and diluted three-fold into 10 concentration points in a dilution plate (Greiner-781280) using Bravo (Agilent) according to concentration requirements. The compounds diluted in DMSO were then diluted 20-fold in the assay buffer using Bravo. Further, 2 μl of diluted compounds were transferred to the assay plate (Corning-4512) using Bravo. The purified Pol 0 enzyme and primers ((primer strand: […] ID NO: 1):(template strand: […] A mixture containing 10 mM EDTA, 25 mM Tris pH 7.5, and a 1:200 diluted PicoGreen dye (Invitrogen-[…] the reaction. After 30 min of reaction at room temperature in the dark, fluorescence values were read on EnVision 2105 (PerkinElmer) using the Ex480 nm Em520 nm program, and the raw data was analyzed using XLfit to generate IC50 values. The results are shown in the table below.

Chain of Polθ polymerase (O75417 1792-2590): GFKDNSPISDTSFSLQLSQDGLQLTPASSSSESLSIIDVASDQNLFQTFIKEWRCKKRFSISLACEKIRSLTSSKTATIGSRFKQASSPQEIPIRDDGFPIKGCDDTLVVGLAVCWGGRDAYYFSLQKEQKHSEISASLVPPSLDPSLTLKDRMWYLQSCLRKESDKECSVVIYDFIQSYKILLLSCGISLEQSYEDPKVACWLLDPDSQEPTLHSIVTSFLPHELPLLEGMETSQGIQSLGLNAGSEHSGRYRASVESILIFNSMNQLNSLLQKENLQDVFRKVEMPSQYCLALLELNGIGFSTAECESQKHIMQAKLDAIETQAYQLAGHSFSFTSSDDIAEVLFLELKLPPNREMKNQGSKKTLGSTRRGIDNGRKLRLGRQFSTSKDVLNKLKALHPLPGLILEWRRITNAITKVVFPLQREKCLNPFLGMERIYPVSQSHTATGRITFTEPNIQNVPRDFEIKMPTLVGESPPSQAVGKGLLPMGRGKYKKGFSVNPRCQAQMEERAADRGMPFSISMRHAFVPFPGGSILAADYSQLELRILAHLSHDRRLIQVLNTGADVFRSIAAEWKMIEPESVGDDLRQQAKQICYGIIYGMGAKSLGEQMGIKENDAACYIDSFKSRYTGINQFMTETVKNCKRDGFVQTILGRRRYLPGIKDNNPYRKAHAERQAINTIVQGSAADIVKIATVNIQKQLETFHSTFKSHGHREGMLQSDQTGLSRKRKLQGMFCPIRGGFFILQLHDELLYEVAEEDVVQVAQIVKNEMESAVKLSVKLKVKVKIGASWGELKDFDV

First: CN(C(=O)[C@@H]1CNC(=O)N1c1cc(C(F)(F)F)c2c(n1)CC[C@H]2O)c1ccc(F)c(Cl)c1F [Compound 6a]
Second: CN(C(=O)[C@@H]1CNC(=O)N1c1cc(C(F)(F)F)c2c(n1)CCC2)c1ccc(F)c(Cl)c1F [Compound 1, (S)—N-(3-chloro-2,4-difluorophenyl)-N-methyl-2-oxo-3-(4-(trifluoromethyl)-6,7-dihydro-5H-cyclopenta[b]pyridin-2-yl)imidazolidine-4-carboxamide]
The IC50 of the first is higher: 500 to 5000 nM for the first, no more than 50 nM for the second.

Compared with CN(C(=O)[C@@H]1CNC(=O)N1c1cc(C(F)(F)F)c2c(n1)CC[C@]2(C)O)c1ccc(F)c(Cl)c1F [Compound 8a], CN(C(=O)[C@@H]1CNC(=O)N1c1cc(C(F)(F)F)c2c(n1)CCC2(F)F)c1ccc(F)c(Cl)c1F [Compound 11, (S)—N-(3-chloro-2,4-difluorophenyl)-3-(5,5-difluoro-4-(trifluoromethyl)-6,7-dihydro-5H-cyclopentadienyl[b]pyridin-2-yl)-N-methyl-2-oxoimidazolidine-4-carboxamide] is lower in IC50: 500 to 5000 nM for the first, 50 to 500 nM for the second.

CN(C(=O)[C@@H]1CNC(=O)N1c1cc(C(F)(F)F)c2c(n1)C(F)(F)CC2)c1ccc(F)c(Cl)c1F [Compound 12, (S)—N-(3-chloro-2,4-difluorophenyl)-3-(7,7-difluoro-4-(trifluoromethyl)-6,7-dihydro-5H-cyclopenta[b]pyridin-2-yl)-N-methyl-2-oxoimidazolidine-4-carboxamide] and CN(C(=O)[C@@H]1CNC(=O)N1c1cc(C(F)(F)F)c2c(n1)OCC2)c1ccc(F)c(Cl)c1F [Compound 20, (S)—N-(3-chloro-2,4-difluorophenyl)-N-methyl-2-oxo-3-(4-(trifluoromethyl)-2,3-dihydrofuro[2,3-b]pyridin-6-yl)imidazolidine-4-carboxamide] cannot be ordered by IC50: no more than 50 nM for the first, 50 to 500 nM for the second.

CN(C(=O)[C@@H]1CNC(=O)N1c1cc(C(F)(F)F)c2cc[se]c2n1)c1ccc(F)c(Cl)c1F [Compound 33] and CN(C(=O)[C@@H]1CNC(=O)N1c1cc(C(F)(F)F)c2ccsc2n1)c1ccc(F)c(Cl)c1F [Compound 14, (S)—N-(3-chloro-2,4-difluorophenyl)-N-methyl-2-oxo-3-(4-(trifluoromethyl)thieno[2,3-b]pyridin-6-yl)imidazolidine-4-carboxamide] cannot be ordered by IC50: no more than 50 nM for the first, no more than 50 nM for the second.

CN(C(=O)[C@@H]1CNC(=O)N1c1cc(SC(F)(F)F)c2ncsc2n1)c1ccc(F)c(Cl)c1F [Compound 44, (S)—N-(3-chloro-2,4-difluorophenyl)-N-methyl-2-oxo-3-(7-((trifluoromethyl)thio)thiazolo[5,4-b]pyridin-5-yl)imidazolidine-4-carboxamide] and CSc1cc(N2C(=O)NC[C@H]2C(=O)N(C)c2ccc(F)c(Cl)c2F)nc2scnc12 [Compound 43, (S)—N-(3-chloro-2,4-difluorophenyl)-N-methyl-3-(7-(methylthio)thiazolo[5,4-b]pyridin-5-yl)-2-oxoimidazolidine-4-carboxamide] fall in the same range of IC50: 50 to 500 nM for the first, 50 to 500 nM for the second.

Compared with CN(C(=O)[C@@H]1CNC(=O)N1c1cc(C(F)(F)F)c2c(n1)CCCC2)c1ccc(F)c(Cl)c1F [Compound 5, (S)—N-(3-chloro-2,4-difluorophenyl)-N-methyl-2-oxo-3-(4-(trifluoromethyl)-5,6,7,8-tetrahydroquinolin-2-yl)imidazolidine-4-carboxamide], CN(C(=O)[C@@H]1CNC(=O)N1c1cc(C(F)(F)F)c2c(n1)C(=O)CC2)c1ccc(F)c(Cl)c1F [Compound 13, (S)—N-(3-chloro-2,4-difluorophenyl)-N-methyl-2-oxo-3-(7-oxo-4-(trifluoromethyl)-6,7-dihydro-5H-cyclopenta[b]pyridin-2-yl)imidazolidine-4-carboxamide] is lower in IC50: 500 to 5000 nM for the first, no more than 50 nM for the second. The second is the more potent here.

CN(C(=O)[C@@H]1CNC(=O)N1c1cc(C(F)(F)F)c2ccccc2n1)c1ccc(F)c(Cl)c1F [Compound 17, (S)—N-(3-chloro-2,4-difluorophenyl)-N-methyl-2-oxo-3-(4-(trifluoromethyl)quinolin-2-yl)imidazolidine-4-carboxamide] and CN(C(=O)[C@@H]1CNC(=O)N1c1cc(C(F)(F)F)c2ccoc2n1)c1ccc(F)c(Cl)c1F [Compound 15, (S)—N-(3-chloro-2,4-difluorophenyl)-N-methyl-2-oxo-3-(4-(trifluoromethyl)furo[2,3-b]pyridin-6-yl)imidazolidine-4-carboxamide] fall in the same range of IC50: 50 to 500 nM for the first, 50 to 500 nM for the second.

CN(C(=O)[C@@H]1CNC(=O)N1c1cc(C(F)(F)F)c2cccn2n1)c1ccc(F)c(Cl)c1F [Compound 27, (S)—N-(3-chloro-2,4-difluorophenyl)-N-methyl-2-oxo-3-(4-(trifluoromethyl)pyrrolo[1,2-b]pyridazin-2-yl)imidazolidine-4-carboxamide] and CN(C(=O)[C@@H]1CNC(=O)N1c1cc(C(F)(F)F)n2cccc2n1)c1ccc(F)c(Cl)c1F [Compound 22, (S)—N-(3-chloro-2,4-difluorophenyl)-N-methyl-2-oxo-3-(4-(trifluoromethyl)pyrrolo[1,2-a]pyrimidin-2-yl)imidazolidine-4-carboxamide] cannot be ordered by IC50: no more than 50 nM for the first, no more than 50 nM for the second.

First: CN(C(=O)[C@@H]1CNC(=O)N1c1cc(C(F)(F)F)c2c(n1)CC=C2)c1ccc(F)c(Cl)c1F (single isomer, unassigned) [Compound 9b]
Second: CN(C(=O)[C@@H]1CNC(=O)N1c1cc(C(F)(F)F)c2c(n1)CCC2=O)c1ccc(F)c(Cl)c1F [Compound 3, (S)—N-(3-chloro-2,4-difluorophenyl)-N-methyl-2-oxo-3-(5-oxo-4-(trifluoromethyl)-6,7-dihydro-5H-cyclopenta[b]pyridin-2-yl)imidazolidine-4-carboxamide]
The IC50 of the first is lower: no more than 50 nM for the first, greater than 5000 nM for the second.

Compared with CN(C(=O)[C@@H]1CNC(=O)N1c1cc(C2CC2)c2ncsc2n1)c1ccc(F)c(Cl)c1F [Compound 31, [(4S)-3-(7-cyclopropyl (1,3-thiazolo[4,5-e]pyridin-5-yl))-2-oxoimidazolidin-4-yl]-N-(3-chloro-2,4-difluorophenyl)-N-methylformamide], CN(C(=O)[C@@H]1CNC(=O)N1c1ccc2c(n1)CCC2)c1ccc(F)c(Cl)c1F [Compound 2, (S)—N-(3-chloro-2,4-difluorophenyl)-3-(6,7-dihydro-5H-cyclopenta[b]pyridin-2-yl)-N-methyl-2-oxoimidazolidine-4-carboxamide] is higher in IC50: no more than 50 nM for the first, 500 to 5000 nM for the second. The first is the more potent here.

CN(C(=O)[C@@H]1CNC(=O)N1c1cc(C(F)(F)F)c2c(n1)CC=C2)c1ccc(F)c(Cl)c1F (single isomer, unassigned) [Compound 9a] and CN(C(=O)[C@@H]1CNC(=O)N1c1cc(C(F)(F)F)c2sccc2n1)c1ccc(F)c(Cl)c1F [Compound 4, (S)—N-(3-chloro-2,4-difluorophenyl)-N-methyl-2-oxo-3-(7-(trifluoromethyl)thieno[3,2-b]pyridin-5-yl)imidazoline-4-carboxamide] cannot be ordered by IC50: no more than 50 nM for the first, 50 to 500 nM for the second.

Compared with CN(C(=O)[C@@H]1CNC(=O)N1c1cc(C(F)(F)F)c2c(ncn2C)n1)c1ccc(F)c(Cl)c1F [Compound 10, (S)—N-(3-chloro-2,4-difluorophenyl)-N-methyl-3-(1-methyl-7-(trifluoromethyl)-1H-imidazo[4,5-b]pyridin-5-yl)-2-oxoimidazolidine-4-carboxamide], CN(C(=O)[C@@H]1CNC(=O)N1c1cc(C(F)(F)F)c2ccn(C)c2n1)c1ccc(F)c(Cl)c1F [Compound 18, (S)—N-(3-chloro-2,4-difluorophenyl)-N-methyl-3-(1-methyl-4-(trifluoromethyl)-1H-pyrrolo[2,3-b]pyridin-6-yl)-2-oxoimidazolidine-4-carboxamide] is lower in IC50: greater than 5000 nM for the first, 50 to 500 nM for the second. The second is the more potent here.

Compared with O=C1OC[C@@H](c2nc(F)cn2-c2ccc(F)c(Cl)c2)N1c1cc(C(F)(F)F)c2ccsc2n1 [Compound 30, (R)-4-(1-(3-chloro-4-fluorophenyl)-4-fluoro-1H-imidazol-2-yl)-3-(4-(trifluoromethyl)thieno[2,3-b]pyridin-6-yl)oxazolidin-2-one], CN(C(=O)[C@@H]1CNC(=O)N1c1nccn2ccnc12)c1ccc(F)c(Cl)c1F [Compound 41, (S)—N-(3-chloro-2,4-difluorophenyl)-3-(imidazo[1,2-a]pyrazin-8-yl)-N-methyl-2-oxoimidazolidine-4-carboxamide] is higher in IC50: no more than 50 nM for the first, greater than 5000 nM for the second. The first is the more potent here.
